According to US7163923B2, “Peptide deformylase activated prodrugs” (Celmed Oncology (USA), Inc., priority 2001, dated 2007):
Converted amounts (≈) assume the structure as drawn.

Key:
[1] = Stability in mouse plasma; type: in vitro ADME
Description: (§1) Stability of PDF ECTA compounds was determined in different media: PBS, pH 7.4 (Gibco Life Technologies), 50 mM HEPES buffer (Sigma), pH 7.5, Mueller Hinton broth (Becton Dickinson), mouse and human plasma (Sigma). Dependence of a compound concentration on time was fit to an exponential equation c=co×exp(−k×t)} where c is the running concentration of the compound, co is its initial concentration and t is time. The compound half-life was determined as t1/2=0.693/k.

[2] = Stability in PBS, HEPES buffer and Mueller Hinton broth; type: physicochemical
Description: as §1

[3] = tested on: E. faecalis; test: MIC susceptibility testing (NCCLS, 96-well); type: cell-based; settings: E. faecalis ATCC 29212, 18 hours at 35° C.
Description: (§2) The NCCLS (National Committee for Clinical Laboratory Standards) method was used to determine MIC's of antimicrobial compounds. All stocks of tested compounds were prepared in either water or DMSO based on the solubility. At the highest concentration of the tested compound DMSO content should not exceed 0.5%. Briefly 2-fold serial dilutions of test compounds from the highest concentration were made in a 96-well microtiter plate. Each well was inoculated with testing bacteria in broth to a final concentration of approximately 5×10^5 CFU/ml. Bacterial growth was monitored by the increase of optical density at 600 nm using a microplate reader (Tecan SpectraFluor Plus). The MIC was defined as the lowest concentration at which bacteria growth (equivalent to visible growth) was inhibited after 18 hours of incubation at 35° C.

[4] = tested on: P. aeruginosa; test: MIC susceptibility testing (NCCLS, 96-well); type: cell-based; settings: P. aeruginosa ATCC 27853, 18 hours at 35° C.
Description: as §2

[5] = tested on: E. coli; test: MIC susceptibility testing (NCCLS, 96-well); type: cell-based; settings: E. coli ATCC 25922, 18 hours at 35° C.
Description: as §2

[6] = tested on: S. aureus; test: MIC susceptibility testing (NCCLS, 96-well); type: cell-based
Description: as §2

[7] = Stability in human plasma; type: in vitro ADME
Description: as §1

[8] = tested on: S. aureus; test: MIC susceptibility testing (modified NCCLS, 384-well); type: cell-based; settings: Staphylococcus aureus
Description: The NCCLS (National Committee for Clinical Laboratory Standards), method to determine MIC's of antimicrobial compounds is modified for high-throughput screening. All stocks of tested compounds are prepared in either water or in DMSO depending on solubility. At the highest concentration, DMSO content should not exceed 0.5%. Briefly, twenty 2-fold serial dilutions of test compounds from the highest concentration are made in a 384-well microtiter plate. Each well is inoculated with testing bacteria in broth to a final concentration of approximately 1–1.5×10^6 cells/ml. Bacterial growth is determined by the increase of optical density at 600 nm using a microplate reader (Tecan SpectraFluor Plus). The MIC is defined as the lowest concentration at which bacterial growth (equivalent to visible growth) was inhibited after 16 to 18 hours of incubation at the appropriate temperature required for the bacteria growth.
Using the assay provided above, the potency of NB2046 was compared to triclosan.

[9] = molecular target: T1, purified PDF (Escherichia coli, UniProt P0A6K3); test: Cell-free reaction catalyzed by purified PDF (HPLC, Michaelis-Menten); type: biochemical, E. coli; settings: different concentrations of actinonin, FIG. 5
T1 construct: made in house; host or cells: PDF-overexpressing E. coli
T1 sequence (P0A6K3 1-169): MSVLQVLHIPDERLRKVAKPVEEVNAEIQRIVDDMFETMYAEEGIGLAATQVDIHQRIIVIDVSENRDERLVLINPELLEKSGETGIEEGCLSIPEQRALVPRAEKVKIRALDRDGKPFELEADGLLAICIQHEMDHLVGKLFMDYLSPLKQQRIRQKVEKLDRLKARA
Description: (§3) In a seperate experiment, cell-free reaction of PDF ECTA compounds has been studied using PDF purified from PDF-overexpressing E. coli following a procedure described in Ragusa S., et al. (2000) and Wei, et al. (2000b). NB3068 conversion was used as an example of a PDF ECTA reaction catalyzed by purified PDF. It was carried out in 50 mM HEPES buffer, pH 7.5 at room temperature. NB3068 concentrations were in the range of 2–250 μM, and the concentration of the enzyme in the reaction mixture was 25 nM. The conversion was monitored by direct injection of the reaction mixture onto an HPLC column (Adsorbosphere HS, C18, 5 μm, 4.6 mm×150 mm, Alltech). […] Kinetic parameters of the reaction were determined fitting the data to the Michaelis-Menten equation.
(§4) To confirm the role of PDF in catalyzing NB3068 transformation the rate of the reaction at different enzyme concentrations was determined (FIGS. 3 and 4). As can been seen the rate of the reaction is proportional to the enzyme concentration.

[10] = substrate: CCn1cc(C(=O)O)c(=O)c2cc(F)c(N3CCN(C(=O)OCc4ccc(OC(=O)[C@H](CC(C)C)NC(=O)[C@H](CCSC)NC=O)cc4)CC3)cc21; test: as above; type: biochemical, E. coli; settings: other: PDF 25 nM, 50 mM HEPES pH 7.5, room temperature, substrate 2–250 μM
Description: as §3, §4

[11] = S. aureus (MS) ATCC 29213, 18 hours at 35° C.
[12] = 50 mM HEPES buffer, pH 7.5, 6 hours
[13] = 50 mM HEPES buffer, pH 7.5, read-out: t1/2 HEPES
[14] = Mueller Hinton broth, read-out: t1/2 Broth
[15] = PBS, pH 7.4, read-out: t1/2 PBS

For “1-Cyclopropyl-6-fluoro-4-oxo-7-piperazin-1-yl-1,4-dihydro-quinoline-3-carboxylic acid 4-[2-(2-formylamino-4-methylsulfanyl-butyrylamino)-4-methyl-pentanoyloxy]-benzylester [NB3057]”, the “t1/2 Mouse Plasma” value [1] was 1.4 min, the “t1/2 Broth” value ([2]; buffer) was 10 h and the “percent of the compound remaining after 6 hours, PBS” value ([2]; buffer, 6 h, pH 7.4) was “(82%)”. For the same molecule, the “t1/2 PBS” value ([2]; buffer, pH 7.4) was greater than 12 h, the “t1/2 HEPES” value ([2]; buffer, pH 7.5) was greater than 12 h and the MIC [3] was 4 µg/mL. The MIC [4] was 2 µg/mL, the MIC [5] was 0.0625 µg/mL and the MIC ([6]; S. aureus (MR) ATCC 33591, 18 hours at 35° C.) was 0.5 µg/mL. For the same molecule, the MIC [6, 11] was 0.125 µg/mL and the “t1/2 Human Plasma” value [7] was less than 30 s.

In the case of CSCC[C@H](NC=O)C(=O)N[C@@H](CC(C)C)C(=O)Oc1ccc(CSc2cccc[n+]2[O-])cc1 [NB3024], the “percent of the compound remaining after 6 hours, HEPES” value [2, 12] is reported as “(88%)”, the half-life [2, 13] is reported as greater than 12 h and the “percent of the compound remaining after 6 hours, Broth” value ([2]; Mueller Hinton broth, 6 hours) is reported as “(82%)”. For the same molecule, the half-life [2, 14] was greater than 12 h, the “percent of the compound remaining after 6 hours, PBS” value ([2]; PBS, pH 7.4, 6 hours) was “(81%)” and the half-life [2, 15] was greater than 12 h. The MIC [3] was 32 µg/mL (≈ 63.3 µM), the MIC [4] was 128 µg/mL (≈ 253 µM) and the MIC [5] was 16 µg/mL (≈ 31.6 µM). It also gave an MIC [6, 11] of 8 µg/mL (≈ 15.8 µM).

With CCn1cc(C(=O)O)c(=O)c2cc(F)c(N3CCN(C(=O)OCc4ccc(OC(=O)[C@H](CC(C)C)NC(=O)[C@H](CCSC)NC=O)cc4)CC3)cc21 [NB3068, 1-Ethyl-6-fluoro-7-(4-{4-[2-(2-formylamino-4-methylsulfanyl-butyrylamino)-4-methyl-pentanoyloxy]-benzyloxycarbonyl}-piperazin-1yl)-4-oxo-1,4-dihydro-qiuinoline-3-carboxylic acid] the half-life ([1]; read-out: t1/2 Mouse Plasma) was 36 s, the “percent of the compound remaining after 6 hours, HEPES” value [2, 12] was “(70%)” and the half-life [2, 13] was greater than 12 h. For the same molecule, the “percent of the compound remaining after 6 hours, Broth” value ([2]; Mueller Hinton broth, 6 hours) was “(70%)”, the half-life [2, 14] was greater than 12 h and the “percent of the compound remaining after 6 hours, PBS” value ([2]; PBS, pH 7.4, 6 hours) was “(75%)”. For the same molecule, the half-life [2, 15] was greater than 12 h, the MIC [3] was 2 µg/mL (≈ 2.7 µM) and the MIC [4] was 0.5 µg/mL (≈ 0.674 µM). The MIC [5] was less than 0.004 µg/mL, the MIC [6, 11] was 2 µg/mL (≈ 2.7 µM) and the half-life ([7]; read-out: t1/2 Human Plasma) was 4.1 min.

For CSCC[C@H](NC=O)C(=O)N[C@@H](CC(C)C)C(=O)Oc1ccc(COC(=O)N(CCCl)CCCl)cc1 [NB3103, 2-(2-Formylamino-4-methylsulfanyl-butyrylamino)-4-methyl-pentanoic acid 4-{[bis-(2-chloro-ethyl)-carbamoyloxy]-methyl}-phenyl ester], the “percent of the compound remaining after 6 hours, HEPES” value [2, 12] was “(95%)”, the half-life [2, 13] was greater than 12 h and the “percent of the compound remaining after 6 hours, Broth” value ([2]; Mueller Hinton broth, 6 hours) was “(95%)”. The “percent of the compound remaining after 6 hours, PBS” value ([2]; PBS, pH 7.4, 6 hours) was “(96%)”, the half-life ([2]; buffer, Mueller Hinton broth, read-out: t1/2 Broth) was greater than 12 h and the half-life ([2]; buffer, PBS, pH 7.4, read-out: t1/2 PBS) was greater than 12 h. It also gave an MIC [3] greater than 128 µg/mL, an MIC [4] greater than 128 µg/mL and an MIC [5] greater than 128 µg/mL. The MIC [6, 11] was greater than 128 µg/mL.

For Oc1cc(Cl)ccc1Oc1ccc(Cl)cc1Cl [Triclosan, reference compound], the MIC ([8]; ATCC 11632 / MSSA) was 0.00195 µg/mL (≈ 0.00675 µM), the MIC ([8]; ATCC 13301 / MSSA) was 0.000488 µg/mL (≈ 0.00169 µM) and the MIC ([8]; ATCC 14154 / MSSA) was 0.00195 µg/mL (≈ 0.00675 µM). It also gave an MIC ([8]; ATCC 33591 / MSSA) of 0.00781 µg/mL (≈ 0.027 µM), an MIC ([8]; ATCC 33592 / MSSA) of 0.00391 µg/mL (≈ 0.0135 µM) and an MIC ([8]; ATCC 33593 / MSSA) of 0.000977 µg/mL (≈ 0.00337 µM). It also gave an MIC ([8]; ATCC 43300 / MSSA) of 0.00195 µg/mL (≈ 0.00675 µM), an MIC ([8]; ATCC 700260 / MSSA) of 0.000244 µg/mL (≈ 0.000843 µM) and an MIC ([8]; ATCC 700698 / MSSA) of 0.00391 µg/mL (≈ 0.0135 µM). The MIC ([8]; ATCC 700699 / MSSA) was no less than 4 µg/mL, the MIC ([8]; ATCC 700787 / MSSA) was 0.00195 µg/mL (≈ 0.00675 µM) and the MIC ([8]; ATCC 700788 / MSSA) was 0.0312 µg/mL (≈ 0.108 µM). For the same molecule, the MIC ([8]; ATCC 700789 / MSSA) was 0.0156 µg/mL (≈ 0.054 µM).

For CCCCC[C@H](CC(=O)NO)C(=O)N[C@H](C(=O)N1CCC[C@H]1CO)C(C)C [actinonin], the “Effect on NB3068 reaction catalyzed by purified PDF” value [9] was “slows down the reaction in dose dependent manner”.

B1: purified PDF (Escherichia coli K-12) (protein)
chain: T1 sequence (P0A6K3 1-169)
notes: made in house; host or cells: PDF-overexpressing E. coli
B1 gave a Km [10] of 125 ± 17 µM, a kcat [10] of 2.07 ± 0.14 s⁻¹ and a kcat/Km [10] of 17000 M⁻¹ s⁻¹.
